≈ marks a conversion by molar mass, not a printed value. Where “and” joins values, the source holds several entries; their conditions need not be identical. Equal values may be shown once.
Legend:
[1] = test system: E. faecalis/VRE; test: Anti-enterococcal activity, summary over strains; format: cell-based, Enterococcus faecalis; conditions: for MIC: Enterococcus faecalis, VRE, average over the named compounds and strains, read-out: average MIC against E. faecalis/VRE; for anti-enterococcal MICs/MBCs: range over E. faecalis and VRE isolates and over the named compounds
[2] = test system: methicillin-resistant S. aureus 63718 (MRSA3); test: MIC, microtitration broth method; format: cell-based; conditions: Staphylococcus aureus; MRSA 63718
[3] = test system: S. aureus ATCC 29213; test: MTT assay, inhibition of bacterial respiration; format: cell-based, Staphylococcus aureus
Text: The MTT assay can be used to assess cell growth by measuring respiration. Respiratory activity of bacterial cells (which is finally reflected in their viability) less than 70% after exposure to the MIC values for each tested compound is considered as a positive result of this assay. This low level of cell oxidative metabolism indicates inhibition of cell growth by inhibition of respiration. The lowest multiples of MIC values that achieved more than 70% inhibition of S. aureus ATCC 29213 viability (%) are shown in Table 3.
The percent inhibition of respiration of S. aureus ATCC 29213 was determined through the MTT assay. The assay was performed as described recently. The percent viability is calculated through the comparison of a measured value and that of the uninhibited control: % viability = OD570E/OD570P × 100, where OD570E is the reading from the compound-exposed cells, while OD570P is the reading from the uninhibited cells (positive control). Cytotoxic potential is determined by a percent viability of <70% [46, 47].

[4] = test system: vancomycin-resistant E. faecalis VRE 368 (VRE2); test: MBC, agar aliquot subculture method; format: cell-based, Enterococcus faecalis
[5] = test system: methicillin-resistant S. aureus SA 3202 (MRSA1); test: MBC, agar aliquot subculture method; format: cell-based; conditions: Staphylococcus aureus; MRSA SA 3202
[6] = test system: methicillin-resistant S. aureus 63718 (MRSA3); test: MBC, agar aliquot subculture method; format: cell-based; conditions: Staphylococcus aureus; MRSA 63718
[7] = test system: Staphylococcus aureus ATCC 29213; test: MIC, microtitration broth method; format: cell-based; conditions: ATCC29213, S. aureus ATCC 29213
[8] = test system: Enterococcus faecalis ATCC 29212; test: MBC, agar aliquot subculture method; format: cell-based; conditions: ATCC29212, E. faecalis reference strain
[9] = test system: vancomycin-resistant E. faecalis VRE 342B (VRE1); test: MBC, agar aliquot subculture method; format: cell-based, Enterococcus faecalis
[10] = test system: Enterococcus faecalis ATCC 29212; test: MIC, microtitration broth method; format: cell-based; conditions: ATCC29212, E. faecalis reference strain
[11] = test system: methicillin-resistant S. aureus SA 630 (MRSA2); test: MIC, microtitration broth method; format: cell-based; conditions: Staphylococcus aureus; MRSA SA 630
[12] = test system: vancomycin-resistant E. faecalis VRE 342B (VRE1); test: MIC, microtitration broth method; format: cell-based, Enterococcus faecalis
[13] = test system: human monocytic leukemia cell line THP-1; test: In vitro cell viability (cytotoxicity screening); format: cell-based; conditions: 24 h, medium with 10% FBS, ± SD, n = 6
Procedure: The investigated anilides can be divided into three groups. […] Higher concentrations (than 10 or 30 µM) were not possible to evaluate due to precipitation of the tested compounds in water medium. Based on all these observations, it can be concluded that the high antimicrobial activity of 3,5-CF3-substituted compounds is associated with significant cytotoxic effect against eukaryotic cells. On the other hand, the other still effective compounds, especially agents 1j and 1o, have an insignificant toxic effect, which makes them interesting for further study.
Human monocytic leukemia THP-1 cells obtained from the European Collection of Cell Cultures (ECACC, Salisbury, UK) were used for in vitro antiproliferative assays. A recently described procedure was used.

[14] = test system: vancomycin-resistant E. faecalis VRE 725B (VRE3); test: MBC, agar aliquot subculture method; format: cell-based, Enterococcus faecalis
[15] = test system: M. smegmatis ATCC 700084; test: In vitro antimycobacterial evaluation (MIC); format: cell-based, Mycobacterium smegmatis; conditions: Mycolicibacterium smegmatis, ATCC700084
[16] = test system: methicillin-resistant S. aureus SA 630 (MRSA2); test: MBC, agar aliquot subculture method; format: cell-based; conditions: Staphylococcus aureus; MRSA SA 630
[17] = test system: M. smegmatis and M. marinum; test: Antimycobacterial activity, summary over both strains; format: cell-based; conditions: average over the named compounds and strains; read-out: average MIC against M. smegmatis and M. marinum
[18] = test system: Mycobacterium marinum CAMP 5644; test: In vitro antimycobacterial evaluation (MIC); format: cell-based; conditions: for MIC MM: M. marinum CAMP 5644; for MIC: Mycobacterium marinum, CAMP5644, M. marinum CAMP 5644
[19] = test system: vancomycin-resistant E. faecalis VRE 725B (VRE3); test: MIC, microtitration broth method; format: cell-based, Enterococcus faecalis
[20] = test system: Staphylococcus aureus ATCC 29213; test: MBC, agar aliquot subculture method; format: cell-based; conditions: ATCC29213, S. aureus ATCC 29213
[21] = test system: S. aureus/MRSA; test: Antistaphylococcal activity, summary over strains; format: cell-based, Staphylococcus aureus; conditions: for MIC: Staphylococcus aureus, MRSA, average over the named compounds and strains, read-out: average MIC against S. aureus/MRSA; for antistaphylococcal MICs/MBCs: range over S. aureus and MRSA isolates and over the named compounds
[22] = test system: vancomycin-resistant E. faecalis VRE 368 (VRE2); test: MIC, microtitration broth method; format: cell-based, Enterococcus faecalis
[23] = test system: methicillin-resistant S. aureus SA 3202 (MRSA1); test: MIC, microtitration broth method; format: cell-based; conditions: Staphylococcus aureus; MRSA SA 3202
[24] = Lipophilicity determination by RP-HPLC; format: physicochemical; conditions: RP-HPLC, logarithm of capacity factor k
Procedure: It is evident from the graphs in Figure 1 that the correlation coefficients of the dependences of log k/log D6.5/log D7.4 have a value of r = 0.999 (n = 32), which means that the investigated compounds behave insignificantly differently in aqueous media with different pH. Moreover, lipophilicity was calculated as log P and Clog P using two prediction programs. […] Therefore, only log P values predicted by ACD/Percepta can be used for correlations with experimental values. These matches are shown in the graphs in Figure 2, and according to the correlation coefficient r~0.940 (n = 32), it can be argued that even the predicted lipophilicity values correlate with the experimentally measured ones. However, the largest variations were observed (no difference for series 1, 2) for compounds substituted with 2-Cl, 2-CF3, 2,5-Cl, 4-F, 4-CF3, and 3,5-F, 3,5-Cl. These are mainly substituents capable of forming hydrogen and other types of non-bonding interactions both with the surrounding environment and within the molecule. Overall, series 1 (3-CF3) is less lipophilic than series 2 (4-CF3), but the differences in the experimental data are insignificant. Unsubstituted derivatives 1a/2a are the least lipophilic compounds, while derivatives 1o/2o (3,5-Cl) and 1p/2p (3,5-CF3) are the most lipophilic compounds.
Experimental determination of lipophilicity values (log k, log D6.5, and log D7.4) was performed under the same conditions and on the same device as described by Strharsky et al..

For `O=C(/C=C/c1cccc(C(F)(F)F)c1)Nc1ccc(C(F)(F)F)cc1` [1j, (2E)-3-[3-(Trifluoromethyl)phenyl]-N-[4-(trifluoromethyl)phenyl]prop-2-enamide], the MIC [1] was about 15 µM (≈ 5.39 µg/mL), the “anti-enterococcal MICs/MBCs” value [1] was 2.34 to 44.5 µM and the MIC [2] was 2.78 µM (≈ 0.999 µg/mL). For the same molecule, the “Conc.: lowest multiple of MIC with at least 70% inhibition of respiratory activity” value [3] was 0.5× MIC (0.5× MBC), the “Conc.: the same concentration as multiple of MBC” value [3] was 0.5× MIC (0.5× MBC) and the MBC [4] was 44.5 µM (≈ 16 µg/mL). For the same molecule, the MBC [5] was 2.78 µM (≈ 0.999 µg/mL), the MBC [6] was 5.57 µM (≈ 2 µg/mL) and the MIC [7] was 2.78 µM (≈ 0.999 µg/mL). The MBC [8] was 22.3 µM (≈ 8.01 µg/mL), the MBC [9] was 22.3 µM (≈ 8.01 µg/mL) and the MIC [10] was 22.3 µM (≈ 8.01 µg/mL). It also gave a melting point of 118 to 120 °C, an MIC [11] of 1.39 µM (≈ 0.499 µg/mL) and an MIC [12] of 22.3 µM (≈ 8.01 µg/mL). For the same molecule, the IC50 [13] was over 30 µM, the MBC [14] was 22.3 µM (≈ 8.01 µg/mL) and the MIC [15] was 11.1 µM (≈ 3.99 µg/mL). The MBC [16] was 1.39 µM (≈ 0.499 µg/mL), the MIC [17] was about 4.1 µM (≈ 1.47 µg/mL) and the “MIC MM” value [18] was 0.348 – µM. The MIC [18] was 0.29 to 22.2 µM (≈ 0.104 to 7.98 µg/mL), the MIC [19] was 22.3 µM (≈ 8.01 µg/mL) and the MBC [20] was 2.78 µM (≈ 0.999 µg/mL). For the same molecule, the MIC [21] was about 1.4 µM (≈ 0.503 µg/mL), the “antistaphylococcal MICs/MBCs” value [21] was 0.15 to 5.57 µM and 0.146 to 5.57 µM and the MIC [22] was 44.5 µM (≈ 16 µg/mL). For the same molecule, the MIC [23] was 2.78 µM (≈ 0.999 µg/mL) and the log k [24] was 0.9247.
In the case of `O=C(/C=C/c1ccc(C(F)(F)F)cc1)Nc1cc(C(F)(F)F)cc(C(F)(F)F)c1` [2p, (2E)-N-[3,5-bis(Trifluoromethyl)phenyl]-3-[4-(trifluoromethyl)phenyl]prop-2-enamide], the MIC [1] is reported as about 15 µM (≈ 6.41 µg/mL), the “anti-enterococcal MICs/MBCs” value [1] is reported as 2.34 to 44.5 µM and the MIC [2] is reported as 0.293 µM (≈ 0.125 µg/mL). The “Conc.: lowest multiple of MIC with at least 70% inhibition of respiratory activity” value [3] was 2× MIC (2× MBC), the “Conc.: the same concentration as multiple of MBC” value [3] was 2× MIC (2× MBC) and the MBC [4] was 9.36 µM (≈ 4 µg/mL). For the same molecule, the MBC [5] was 0.585 µM (≈ 0.25 µg/mL), the MBC [6] was 0.293 µM (≈ 0.125 µg/mL) and the MIC [7] was 0.146 µM (≈ 0.0624 µg/mL). The MBC [8] was 4.68 µM (≈ 2 µg/mL), the MBC [9] was 4.68 µM (≈ 2 µg/mL) and the MIC [10] was 2.34 µM (≈ 1 µg/mL). The melting point was 207 to 209 °C, the MIC [11] was 0.293 µM (≈ 0.125 µg/mL) and the MIC [12] was 2.34 µM (≈ 1 µg/mL). For the same molecule, the IC50 [13] was 8.9 ± 1.3 µM, the MBC [14] was 2.34 µM (≈ 1 µg/mL) and the MIC [15] was 1.17 µM (≈ 0.5 µg/mL). The MBC [16] was 0.585 µM (≈ 0.25 µg/mL), the MIC [17] was about 4.1 µM (≈ 1.75 µg/mL) and the “MIC MM” value [18] was 0.293 – µM. It also gave an MIC [18] of 0.29 to 22.2 µM (≈ 0.124 to 9.49 µg/mL), an MIC [19] of 2.34 µM (≈ 1 µg/mL) and an MBC [20] of 0.146 µM (≈ 0.0624 µg/mL). The MIC [21] was about 1.4 µM (≈ 0.598 µg/mL), the “antistaphylococcal MICs/MBCs” value [21] was 0.15 to 5.57 µM and 0.146 to 5.57 µM and the MIC [22] was 4.68 µM (≈ 2 µg/mL). For the same molecule, the MIC [23] was 0.585 µM (≈ 0.25 µg/mL) and the log k [24] was 1.3665.
